Assay results from PMC2628638, “Catalytic inhibition of topoisomerase II by a novel rationally designed ATP-competitive purine analogue” (BMC Chemical Biology, 2009).

Tests used:
HL-60 cells = test: Chromosome segregation assay (chromosome spreads); format: cell-based; conditions: 10 μM with 1 mM caffeine for 2 hours after 6 hours release
Protocol: HL-60 cells were treated overnight for 16 hours with 2 μg/ml aphidicolin (Sigma-Aldrich corporation, St. Louis, MO) and released by washing twice PBS and resuspending into fresh medium. After 6 hours release the cells were treated with 1 mM caffeine (Lancaster Synthesis, Heysham, Lancashire, UK) and with catalytic topoisomerase II inhibitor or vehicle for 2 hours. Cells were washed once with PBS and incubated with 56 mM KCl hypotonic solution for 30 minutes. Cells were pelleted and carefully resuspended in Carnoy's fixative. Cells were pelleted as above, supernatant was removed and cells were resuspended again in 2 ml fixative. Chromosome spreads were prepared by dropping 50 μl cell suspension onto microscopy slides. The slides were allowed to dry and then stained for 10 seconds in Hoechst 33342 dye (Molecular Probes, Eugene, Oregon, prepared 1:1000 in PBS from 10 mg/ml stock). After drying, mounting media (Vectashield®, Vector Laboratories, Burlingame, CA) and a cover slip were added. Samples were observed using an immersion oil lens (100 ×, Nikon, Plan Apo VC) by fluorescence microscopy (Nikon Eclipse, E600) in the DAPI channel. Images were acquired using analySIS® software (Soft Imaging System GmbH, Münster, Germany). Representative images were converted to grayscale, inverted and contrast adjusted with Adobe Photoshop. Mitotic cells were categorized as described.

[1] = system: panel of serine/threonine/tyrosine protein kinases; test: Kinase selectivity profiling, standard panel of kinases; format: biochemical; conditions: in vitro, versus topoisomerase II
Text: Based on homology structural models of the target, a purine scaffold was designed interactively using the Macromodel modeling software. The designed purine scaffold was subsequently used as a substructure query to search the Novartis compound collection. Around 50 molecules were retrieved in this manner and screened in an ATPase assay using purified full length tagged human topoisomerase II alpha. […] Subsequently, we carried out kinetic analysis with QAP 1 in order to corroborate the mode of action. […] The data were analyzed by non-linear regression analysis using the equations corresponding to competitive, uncompetitive, and mixed inhibition (see Methods) and a statistical analysis (F-test; p ≤ 0.05) was carried out to identify the best model. […] A linearized representation (Eady-Hofstee) of one of these experiments is depicted in Figure 1D. To confirm the mode of action of QAP 1, inhibition studies were also carried out in the presence of different concentration of the inhibitor at different ATP concentrations and the IC50 values were determined. […] Next, QAP 1 was tested against a panel of kinases in a radiometric assay. With the exception of subtle inhibition of the Ret and c-Src tyrosine kinases no effect of the compound was observed on other kinases in the panel, even at the highest concentration tested (Table 1). […]

[2] = biological target: T1, purified human topoisomerase II alpha (Homo sapiens, UniProt P11388); test: DNA decatenation assay with purified enzyme (kDNA); format: biochemical; conditions: catenated kDNA, read-out: mean IC50, inhibition of DNA decatenation
T1 construct: screened in an ATPase assay using purified full length tagged human topoisomerase II alpha; made in house; host or cells: Sf21 insect cells, baculovirus (pFastBac1)
T1 sequence (P11388 whole entry): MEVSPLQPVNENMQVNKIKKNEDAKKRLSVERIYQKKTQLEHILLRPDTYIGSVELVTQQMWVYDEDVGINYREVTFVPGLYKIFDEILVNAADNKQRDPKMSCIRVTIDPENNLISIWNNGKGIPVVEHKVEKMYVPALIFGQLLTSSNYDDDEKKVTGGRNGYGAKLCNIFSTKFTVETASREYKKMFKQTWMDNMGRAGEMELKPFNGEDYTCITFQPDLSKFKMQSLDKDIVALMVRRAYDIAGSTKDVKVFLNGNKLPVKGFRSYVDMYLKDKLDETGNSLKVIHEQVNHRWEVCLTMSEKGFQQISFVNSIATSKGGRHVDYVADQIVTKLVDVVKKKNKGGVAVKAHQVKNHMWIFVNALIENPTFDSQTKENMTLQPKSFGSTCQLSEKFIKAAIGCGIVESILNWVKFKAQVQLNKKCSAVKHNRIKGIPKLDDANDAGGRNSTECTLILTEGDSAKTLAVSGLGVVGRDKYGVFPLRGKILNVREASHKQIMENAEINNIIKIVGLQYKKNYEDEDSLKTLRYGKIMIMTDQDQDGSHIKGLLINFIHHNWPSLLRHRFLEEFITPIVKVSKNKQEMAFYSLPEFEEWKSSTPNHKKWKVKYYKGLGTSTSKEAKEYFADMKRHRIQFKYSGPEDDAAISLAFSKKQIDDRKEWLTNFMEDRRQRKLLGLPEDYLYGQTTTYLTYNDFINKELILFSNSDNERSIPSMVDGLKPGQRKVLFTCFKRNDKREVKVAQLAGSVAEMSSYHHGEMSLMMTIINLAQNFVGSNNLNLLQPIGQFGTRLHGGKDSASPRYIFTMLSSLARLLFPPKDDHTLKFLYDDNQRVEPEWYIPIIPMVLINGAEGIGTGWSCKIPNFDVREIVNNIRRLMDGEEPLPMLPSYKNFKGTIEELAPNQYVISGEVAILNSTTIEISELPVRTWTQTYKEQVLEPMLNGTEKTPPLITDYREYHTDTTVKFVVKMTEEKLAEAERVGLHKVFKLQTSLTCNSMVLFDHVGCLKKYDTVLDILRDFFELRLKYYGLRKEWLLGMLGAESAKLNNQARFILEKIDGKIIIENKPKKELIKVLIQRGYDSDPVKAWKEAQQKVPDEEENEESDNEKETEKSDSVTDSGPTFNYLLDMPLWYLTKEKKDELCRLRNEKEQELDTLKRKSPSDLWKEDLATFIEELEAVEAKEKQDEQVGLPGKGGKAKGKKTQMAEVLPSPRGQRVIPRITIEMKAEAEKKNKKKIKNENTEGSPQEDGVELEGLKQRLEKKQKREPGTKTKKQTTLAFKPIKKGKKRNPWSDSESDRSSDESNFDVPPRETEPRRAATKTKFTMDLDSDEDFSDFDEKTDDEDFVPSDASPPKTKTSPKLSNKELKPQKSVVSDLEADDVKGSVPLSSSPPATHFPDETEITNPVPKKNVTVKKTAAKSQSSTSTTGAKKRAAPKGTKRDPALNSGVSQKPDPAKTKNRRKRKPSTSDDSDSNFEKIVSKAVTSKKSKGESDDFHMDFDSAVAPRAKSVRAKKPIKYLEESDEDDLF
Protocol: Reagents for the assay were purchased from TopoGEN (catalog number 1001–1, TopoGEN, Inc., Port Orange, FL). Topoisomerase II was extracted according to the manufacturer's instructions from nuclei of HL-60 cells (ATCC; American Type Culture Collection, Manassas, Virginia, USA) and contained both isoforms as assessed by Western blotting. Calculation of specific topoisomerase II decatenation activity was based on complete decatenation of a given amount of catenated input DNA (100 ng kDNA) by a defined amount of nuclear extract containing the alpha and beta isoforms or of a defined amount of purified enzyme in a particular amount of time. The topoisomerase II activity from nuclei decatenated 0.07 ng catenated kDNA · min^-1 · ng^-1 extract. Purified topoisomerase II alpha (see above) decatenated 0.13 ng catenated kDNA · min^-1 · ng^-1. Vehicle (DMSO) or drug substance at concentrations to yield the desired end concentrations were added and samples were preincubated for 5 minutes at 37°C and 400 rpm in an Eppendorf thermomixer. Reactions were started by adding ATP (to 450 μM final concentration) to each sample and incubation was continued for 20 minutes. […] Gels were analyzed under a UV transilluminator and decatenated kDNA products were quantified using AlphaEaseFC (FluorChem 8900) image analysis software version 3.2.3 (Alpha Innotech, San Leandro, CA).

[3] = system: HCC1937 BRCA1 mutant and HCC1937 BRCA1 reconstituted cells; test: Clonogenic growth assay (WST-1, colony counting); format: cell-based
Protocol: HCC1937 BRCA1 mutant and HCC1937 BRCA1 reconstituted breast ductal carcinoma cells were cultured in RPMI-1640 medium supplemented with 10% fetal calf serum, 2 mM L-glutamine, 1 mM sodium pyruvate, 4.5 g/l glucose and 1% (v/v) penicillin/streptomycin. Status of BRCA1 was corroborated by immunoprecipitation using 50 μg nuclear extracts and 1 μg mouse monoclonal antibody MS110 (ab16780, Abcam Inc., Cambridge, MA), which is directed towards the amino-terminus of the protein. Blots were probed with BRCA1 carboxy-terminal specific mouse monoclonal antibody D9 (sc-6954, Santa Cruz Biotechnologies, Santa Cruz, CA) and, following stripping, re-probed with antibody MS110. For assays, 5000 cells in 3 ml medium were seeded per well of 6 well plates in duplicates. The day after, vehicle (DMSO) or compounds were added. After one week medium was exchanged and vehicle or compounds were re-added for an additional two days. To assess proliferation the medium in each well was replaced with 1 ml medium containing 100 μl WST-1 reagent and incubation for 20 minutes at 37°C. Of each sample 110 μl supernatant were transferred into a 96 well plate and the OD was read at 450 nm (filter at 630 nm) on a SpectraMax Plus microtiter plate reader using SoftMax Pro software (Molecular Devices). For background correction, the blank value consisted of 100 μl medium containing 10 μl WST-1. Thereafter, colonies were stained by removing medium, washing cells once with PBS and incubation with 1 ml crystal violet solution for 30 minutes at room temperature. Cells were washed twice with PBS and colonies were counted using an Artec Counter (Model 880, Artec, Dyntatech Laboratories Inc.) with diameter cut-off set to 0.2 mm. Data were expressed as growth or colony numbers relative to vehicle control treatments (100%).

selectivity over a standard panel of kinases [1]: greater than 10 fold | IC50 [2]: 660 nM
SMILES: CCc1nc2nc(Nc3ccc4nc(OCCN5CCOCC5)ccc4c3)nc(NC(C)(C)C)c2[nH]1 [QAP 1]
chromosome segregation at mitosis (HL-60 cells): mitosis was also severely perturbed during anaphase | colony formation of BRCA1 mutant cells ([3]; 5 μM, 9 days): striking suppression | sensitivity of BRCA1 mutant versus BRCA1 reconstituted HCC1937 cells ([3]; continuous treatment for 9 days, WST-1 and colony numbers): differential antiproliferative effect
